ChEMBL document CHEMBL1145390, “Synthesis and preliminary biological characterization of new semisynthetic derivatives of ramoplanin” (J Med Chem, 2007)
≈ marks a conversion by molar mass, not a printed value.

Key:
[1] = Toxicity assessed as hemolysis in erythrocytes at 180 mg/L; format: cell-based, Erythrocyte; conditions: human, erythrocytes; read-out: Activity
Staphylococcus aureus [2] = assay: Antibacterial activity against methicillin-resistant and vancomycin-intermediate resistant Staphylococcus aureus clinical isolate after 24 hrs by broth microdilution method; format: functional; conditions: read-out: MIC
Staphylococcus aureus [3] = assay: Antibacterial activity against vancomycin-intermediate resistant Staphylococcus aureus clinical isolate after 24 hrs by broth microdilution method; format: functional
Candida albicans = assay: Antifungal activity against Candida albicans SKF-2270 after 24 hrs by broth microdilution method; format: functional; conditions: read-out: MIC
[4] = Toxicity assessed as hemolysis in erythrocytes at 90 mg/L; format: cell-based, Erythrocyte; conditions: human, erythrocytes; read-out: Activity
Enterococcus faecalis [5] = assay: Antibacterial activity against vancomycin A-resistant Enterococcus faecalis after 24 hrs by broth microdilution method; format: functional; conditions: read-out: MIC
Staphylococcus aureus [6] = assay: Antibacterial activity against methicillin-resistant Staphylococcus aureus clinical isolate after 24 hrs by broth microdilution method; format: functional; conditions: read-out: MIC
Enterococcus faecium [7] = assay: Antibacterial activity against vancomycin A-resistant Enterococcus faecium clinical isolate after 24 hrs by broth microdilution method; format: functional; conditions: read-out: MIC
Enterococcus faecium [8] = assay: Antibacterial activity against Enterococcus faecium after 24 hrs by broth microdilution method; format: functional; conditions: read-out: MIC
Escherichia coli = assay: Antibacterial activity against Escherichia coli SKF-12140 after 24 hrs by broth microdilution method; format: functional; conditions: read-out: MIC
Streptococcus pyogenes = assay: Antibacterial activity against Streptococcus pyogenes C203 after 24 hrs by broth microdilution method; format: functional; conditions: C203, 24 h, read-out: MIC
Enterococcus faecalis [9] = assay: Antibacterial activity against Enterococcus faecalis after 24 hrs by broth microdilution method; format: functional; conditions: read-out: MIC
Staphylococcus aureus [10] = assay: Antibacterial activity against Staphylococcus aureus Smith after 24 hrs by broth microdilution method; format: functional; conditions: read-out: MIC

| Compound | hemolysis at 180 mg/L [1] [%] | MIC (Staphylococcus aureus [2]) [µg/mL] | MIC (Staphylococcus aureus [3]) [µg/mL] | MIC (Candida albicans) [µg/mL] | hemolysis at 90 mg/L [4] [%] | MIC (Enterococcus faecalis [5]) [µg/mL] | MIC (Staphylococcus aureus [6]) [µg/mL] | MIC (Enterococcus faecium [7]) [µg/mL] | MIC (Enterococcus faecium [8]) [µg/mL] | MIC (Escherichia coli) [µg/mL] | MIC (Streptococcus pyogenes) [µg/mL] | MIC (Enterococcus faecalis [9]) [µg/mL] | MIC (Staphylococcus aureus [10]) [µg/mL] |
| --- | --- | --- | --- | --- | --- | --- | --- | --- | --- | --- | --- | --- | --- |
| CCCCCOc1ccc(C(=O)N[C@@H](CC(N)=O)C(=O)NC[C@@H]2C(=O)N[C@H](c3ccc(O)cc3)C(=O)N[C@H](CCCN)C(=O)N[C@H](C(C)C)C(=O)N[C@@H](c3ccc(O)cc3)C(=O)N[C@H](c3ccc(O)cc3)C(=O)N[C@@H]([C@@H](C)O)C(=O)N[C@@H](Cc3ccccc3)C(=O)N[C@H](CCCN)C(=O)N[C@@H](c3ccc(O[C@H]4O[C@H](CO)[C@@H](O)[C@H](O)[C@@H]4O[C@H]4O[C@H](CO)[C@@H](O)[C@H](O)[C@@H]4O)cc3)C(=O)N[C@H]([C@@H](C)O)C(=O)N[C@@H](c3ccc(O)cc3)C(=O)NCC(=O)N[C@@H](CC(C)C)C(=O)N[C@H](C)C(=O)N[C@@H](c3ccc(O)c(Cl)c3)C(=O)O[C@@H]2C(N)=O)cc1 | 10 | 8 (≈ 3.05 µM) | 4 (≈ 1.53 µM) | > 32 | 8 | 0.25 (≈ 0.0954 µM) | 2 (≈ 0.763 µM) | 0.25 (≈ 0.0954 µM) | 0.25 (≈ 0.0954 µM) | > 32 | 0.25 (≈ 0.0954 µM) | 0.25 (≈ 0.0954 µM) | 8 (≈ 3.05 µM) |
| CC(C)C[C@@H]1NC(=O)CNC(=O)[C@H](c2ccc(O)cc2)NC(=O)[C@@H]([C@@H](C)O)NC(=O)[C@H](c2ccc(O[C@H]3O[C@H](CO)[C@@H](O)[C@H](O)[C@@H]3O[C@H]3O[C@H](CO)[C@@H](O)[C@H](O)[C@@H]3O)cc2)NC(=O)[C@@H](CCCN)NC(=O)[C@H](Cc2ccccc2)NC(=O)[C@H]([C@@H](C)O)NC(=O)[C@@H](c2ccc(O)cc2)NC(=O)[C@H](c2ccc(O)cc2)NC(=O)[C@@H](C(C)C)NC(=O)[C@@H](CCCN)NC(=O)[C@@H](c2ccc(O)cc2)NC(=O)[C@@H](CNC(=O)[C@H](CC(N)=O)NC(=O)c2ccc(OCc3cccc(Cl)c3)cc2)[C@@H](C(N)=O)OC(=O)[C@H](c2ccc(O)c(Cl)c2)NC(=O)[C@@H](C)NC1=O | 100 | 8 (≈ 2.99 µM) | 8 (≈ 2.99 µM) | > 32 | 25 | 0.13 (≈ 0.0486 µM) | 2 (≈ 0.748 µM) | 0.25 (≈ 0.0935 µM) | 0.5 (≈ 0.187 µM) | > 32 | 0.13 (≈ 0.0486 µM) | 0.5 (≈ 0.187 µM) | 1 (≈ 0.374 µM) |
| CC(C)C[C@@H]1NC(=O)CNC(=O)[C@H](c2ccc(O)cc2)NC(=O)[C@@H]([C@@H](C)O)NC(=O)[C@H](c2ccc(O[C@H]3O[C@H](CO)[C@@H](O)[C@H](O)[C@@H]3O[C@H]3O[C@H](CO)[C@@H](O)[C@H](O)[C@@H]3O)cc2)NC(=O)[C@@H](CCCN)NC(=O)[C@H](Cc2ccccc2)NC(=O)[C@H]([C@@H](C)O)NC(=O)[C@@H](c2ccc(O)cc2)NC(=O)[C@H](c2ccc(O)cc2)NC(=O)[C@@H](C(C)C)NC(=O)[C@@H](CCCN)NC(=O)[C@@H](c2ccc(O)cc2)NC(=O)[C@@H](CNC(=O)[C@H](CC(N)=O)NC(=O)CCc2ccccc2)[C@@H](C(N)=O)OC(=O)[C@H](c2ccc(O)c(Cl)c2)NC(=O)[C@@H](C)NC1=O | 0 | 8 (≈ 3.12 µM) | 8 (≈ 3.12 µM) | > 32 | 0 | 2 (≈ 0.781 µM) | 2 (≈ 0.781 µM) | 2 (≈ 0.781 µM) | 1 (≈ 0.39 µM) | > 32 | ≤ 0.03 | 2 (≈ 0.781 µM) | 16 (≈ 6.24 µM) |
| Cc1ccc(C(=O)N[C@@H](CC(N)=O)C(=O)NC[C@@H]2C(=O)N[C@H](c3ccc(O)cc3)C(=O)N[C@H](CCCN)C(=O)N[C@H](C(C)C)C(=O)N[C@@H](c3ccc(O)cc3)C(=O)N[C@H](c3ccc(O)cc3)C(=O)N[C@@H]([C@@H](C)O)C(=O)N[C@@H](Cc3ccccc3)C(=O)N[C@H](CCCN)C(=O)N[C@@H](c3ccc(O[C@H]4O[C@H](CO)[C@@H](O)[C@H](O)[C@@H]4O[C@H]4O[C@H](CO)[C@@H](O)[C@H](O)[C@@H]4O)cc3)C(=O)N[C@H]([C@@H](C)O)C(=O)N[C@@H](c3ccc(O)cc3)C(=O)NCC(=O)N[C@@H](CC(C)C)C(=O)N[C@H](C)C(=O)N[C@@H](c3ccc(O)c(Cl)c3)C(=O)O[C@@H]2C(N)=O)cc1 | 3 | 4 (≈ 1.57 µM) | 8 (≈ 3.14 µM) | > 32 | 5 | 2 (≈ 0.785 µM) | 4 (≈ 1.57 µM) | 2 (≈ 0.785 µM) | 4 (≈ 1.57 µM) | > 32 | < 0.03 | 2 (≈ 0.785 µM) | 4 (≈ 1.57 µM) |
| CCCCCCCOc1ccc(C(=O)N[C@@H](CC(N)=O)C(=O)NC[C@@H]2C(=O)N[C@H](c3ccc(O)cc3)C(=O)N[C@H](CCCN)C(=O)N[C@H](C(C)C)C(=O)N[C@@H](c3ccc(O)cc3)C(=O)N[C@H](c3ccc(O)cc3)C(=O)N[C@@H]([C@@H](C)O)C(=O)N[C@@H](Cc3ccccc3)C(=O)N[C@H](CCCN)C(=O)N[C@@H](c3ccc(O[C@H]4O[C@H](CO)[C@@H](O)[C@H](O)[C@@H]4O[C@H]4O[C@H](CO)[C@@H](O)[C@H](O)[C@@H]4O)cc3)C(=O)N[C@H]([C@@H](C)O)C(=O)N[C@@H](c3ccc(O)cc3)C(=O)NCC(=O)N[C@@H](CC(C)C)C(=O)N[C@H](C)C(=O)N[C@@H](c3ccc(O)c(Cl)c3)C(=O)O[C@@H]2C(N)=O)cc1 | 21 | 16 (≈ 6.04 µM) | 8 (≈ 3.02 µM) | > 32 | 0 | 2 (≈ 0.755 µM) | 4 (≈ 1.51 µM) | 1 (≈ 0.378 µM) | 2 (≈ 0.755 µM) | > 32 | 2 (≈ 0.755 µM) | 2 (≈ 0.755 µM) | 8 (≈ 3.02 µM) |
| CC(C)C[C@@H]1NC(=O)CNC(=O)[C@H](c2ccc(O)cc2)NC(=O)[C@@H]([C@@H](C)O)NC(=O)[C@H](c2ccc(O[C@H]3O[C@H](CO)[C@@H](O)[C@H](O)[C@@H]3O[C@H]3O[C@H](CO)[C@@H](O)[C@H](O)[C@@H]3O)cc2)NC(=O)[C@@H](CCCN)NC(=O)[C@H](Cc2ccccc2)NC(=O)[C@H]([C@@H](C)O)NC(=O)[C@@H](c2ccc(O)cc2)NC(=O)[C@H](c2ccc(O)cc2)NC(=O)[C@@H](C(C)C)NC(=O)[C@@H](CCCN)NC(=O)[C@@H](c2ccc(O)cc2)NC(=O)[C@@H](CNC(=O)[C@H](CC(N)=O)NC(=O)c2ccc(O)cc2)[C@@H](C(N)=O)OC(=O)[C@H](c2ccc(O)c(Cl)c2)NC(=O)[C@@H](C)NC1=O | 4 | > 32 | > 32 | > 32 | 0 | 32 (≈ 12.5 µM) | 32 (≈ 12.5 µM) | 32 (≈ 12.5 µM) | 32 (≈ 12.5 µM) | > 32 | 0.5 (≈ 0.196 µM) | 16 (≈ 6.27 µM) | 32 (≈ 12.5 µM) |
| CC(C)C[C@@H]1NC(=O)CNC(=O)[C@H](c2ccc(O)cc2)NC(=O)[C@@H]([C@@H](C)O)NC(=O)[C@H](c2ccc(O[C@H]3O[C@H](CO)[C@@H](O)[C@H](O)[C@@H]3O[C@H]3O[C@H](CO)[C@@H](O)[C@H](O)[C@@H]3O)cc2)NC(=O)[C@@H](CCCN)NC(=O)[C@H](Cc2ccccc2)NC(=O)[C@H]([C@@H](C)O)NC(=O)[C@@H](c2ccc(O)cc2)NC(=O)[C@H](c2ccc(O)cc2)NC(=O)[C@@H](C(C)C)NC(=O)[C@@H](CCCN)NC(=O)[C@@H](c2ccc(O)cc2)NC(=O)[C@@H](CNC(=O)[C@H](CC(N)=O)NC(=O)Cc2ccc(O)cc2)[C@@H](C(N)=O)OC(=O)[C@H](c2ccc(O)c(Cl)c2)NC(=O)[C@@H](C)NC1=O | 0 | > 32 | > 32 | > 32 | 0 |  | > 32 |  | > 32 | > 32 | 1 (≈ 0.39 µM) | > 32 | > 32 |
| CCCC(=O)N[C@@H](CC(N)=O)C(=O)NC[C@@H]1C(=O)N[C@H](c2ccc(O)cc2)C(=O)N[C@H](CCCN)C(=O)N[C@H](C(C)C)C(=O)N[C@@H](c2ccc(O)cc2)C(=O)N[C@H](c2ccc(O)cc2)C(=O)N[C@@H]([C@@H](C)O)C(=O)N[C@@H](Cc2ccccc2)C(=O)N[C@H](CCCN)C(=O)N[C@@H](c2ccc(O[C@H]3O[C@H](CO)[C@@H](O)[C@H](O)[C@@H]3O[C@H]3O[C@H](CO)[C@@H](O)[C@H](O)[C@@H]3O)cc2)C(=O)N[C@H]([C@@H](C)O)C(=O)N[C@@H](c2ccc(O)cc2)C(=O)NCC(=O)N[C@@H](CC(C)C)C(=O)N[C@H](C)C(=O)N[C@@H](c2ccc(O)c(Cl)c2)C(=O)O[C@@H]1C(N)=O | 2 | > 32 | > 32 | > 32 | 0 | 16 (≈ 6.4 µM) | 32 (≈ 12.8 µM) | 16 (≈ 6.4 µM) | 32 (≈ 12.8 µM) | > 32 | 0.5 (≈ 0.2 µM) | 16 (≈ 6.4 µM) | > 32 |
